Results published in the CheMixHub viscosity set.

Test: xn = mol fraction of the nth substance listed

CC(O)C(C)O (stereo not given) + O
viscosity [mPa·s]
Settings	303.15 K	308.15 K	313.15 K	318.15 K	323.15 K
101 kPa, x1 = 0.01	0.943	0.842	0.759	0.69	0.632
101 kPa, x1 = 0.0199	1.108	0.982	0.877	0.792	0.719
101 kPa, x1 = 0.03	1.294	1.138	1.01	0.905	0.816
101 kPa, x1 = 0.0399	1.506	1.312	1.155	–	0.919
101 kPa, x1 = 0.0499	1.733	1.498	1.308	1.155	1.028
101 kPa, x1 = 0.0601	1.985	1.7	1.471	1.292	1.145
101 kPa, x1 = 0.0699	2.242	1.91	1.649	1.436	1.264
101 kPa, x1 = 0.08	2.53	2.135	1.826	1.586	1.39
101 kPa, x1 = 0.0899	2.79	2.345	1.998	1.724	1.503
101 kPa, x1 = 0.1	3.084	2.571	2.182	1.868	1.622
101.3 kPa, x1 = 0.1176	–	3.174	2.627	2.203	–
101.3 kPa, x1 = 0.2307	–	6.873	5.405	4.363	–
101.3 kPa, x1 = 0.3181	–	10.06	7.822	6.198	–
101.3 kPa, x1 = 0.4443	–	15.66	11.92	9.192	–
101.3 kPa, x1 = 0.5311	–	20.41	15.17	11.64	–
101.3 kPa, x1 = 0.6427	–	27.5	20.24	15.02	–
101.3 kPa, x1 = 0.8275	–	41.68	29.62	21.32	–
101.3 kPa, x2 = 0.3539	–	12.95	–	–	–

CCCC[P+](CCCC)(CCCC)CCCC.[Cl-] + O
Settings	viscosity [mPa·s]
298.15 K, 100 kPa, x1 = 0.008058	1.485

C[N+](C)(C)CCO.[Cl-] + O
Settings	viscosity [mPa·s]
298.15 K, 101.33 kPa, x1 = 0.002	0.9099

Cc1ccc(S(=O)(=O)[O-])cc1.[Na+] + O
viscosity [mPa·s], 101 kPa
Settings	x1 = 9e-05	x1 = 0.00018	x1 = 0.0009	x1 = 0.0018	x1 = 0.00448	x1 = 0.00893	x1 = 0.0133	x1 = 0.0177
298.15 K	0.899	0.9	0.916	0.941	1.002	1.113	1.235	1.368
318.15 K	0.598	0.599	0.609	0.626	0.661	0.728	0.799	0.879

O=C([O-])CC(O)(CC(=O)[O-])C(=O)[O-].[Na+].[Na+].[Na+] + O
viscosity [mPa·s]
Settings	293.15 K	298.15 K	303.15 K
101 kPa, x1 = 0.0013	–	0.94	–
101 kPa, x1 = 0.0025	–	1.033	–
101 kPa, x1 = 0.0052	–	1.126	–
101 kPa, x1 = 0.0067	–	1.21	–
101 kPa, x1 = 0.0146	–	1.805	–
101 kPa, x1 = 0.0243	–	3.067	–
101 kPa, x1 = 0.0364	–	5.952	–
101 kPa, x1 = 0.0518	–	9.7	–
101.33 kPa, x1 = 0.002	1.087	0.959	0.859
101.33 kPa, x1 = 0.0054	1.327	1.168	1.043
101.33 kPa, x1 = 0.0093	1.67	1.466	1.305
101.33 kPa, x1 = 0.0126	2.033	1.78	1.58
101.33 kPa, x1 = 0.0165	2.569	2.242	1.984
101.33 kPa, x1 = 0.0196	3.097	2.696	2.379
101.33 kPa, x1 = 0.0232	3.855	3.346	2.944
101.33 kPa, x1 = 0.0269	4.836	4.185	3.67
101.33 kPa, x1 = 0.0297	5.748	4.963	4.341
101.33 kPa, x1 = 0.0335	7.277	6.263	5.46
101.33 kPa, x1 = 0.0366	8.834	7.583	6.593

O=P([O-])([O-])[O-].[Na+].[Na+].[Na+] + O
viscosity [mPa·s], 101 kPa
Settings	x1 = 0.0018	x1 = 0.0054	x1 = 0.0089	x1 = 0.012	x1 = 0.016
298.15 K	0.9742	1.167	1.458	1.859	2.317
303.15 K	0.8777	1.054	1.31	1.67	2.131
308.15 K	0.7769	0.9282	1.146	1.444	1.868

O=[N+]([O-])[O-].O=[N+]([O-])[O-].[Sr+2] + O
viscosity [mPa·s], 100 kPa
Settings	x1 = 0.004	x1 = 0.009	x1 = 0.02	x1 = 0.04	x1 = 0.05
298.15 K	0.9435	1.029	1.226	1.628	2.52
323.15 K	0.589	0.639	0.775	1.012	1.524
